Results reported in patent US9738634B2, “Heterocyclic amide compound and herbicide” (SYNGENTA PARTICIPATIONS AG, priority 2013, dated 2017).

Tests used:
Assay type in all cases: in vivo
oval-leafed pondweed [1] = assay: Test Example 1: weedkilling efficacy, preemergent weed treatment in the submerged state; C: oval-leafed pondweed
Procedure, shortened: (§1)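 Visual scores against set criteria were taken 3 weeks after treatment. Compounds, as diluted emulsions at specified g/ha, went onto the water surface of 4 cm-flooded alluvial soil pots on the day weeds were sown and 2.5-leaf rice was transplanted; greenhouse held 25–30 °C.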

bulrush [2] = assay: Test Example 1: weedkilling efficacy, preemergent weed treatment in the submerged state; B: bulrush
Procedure, shortened: as §1

bulrush [3] = assay: Test Example 2: weedkilling efficacy, growth period weed treatment in the submerged state; B: bulrush
Procedure, shortened: (§2)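 Barnyard grass, bulrush and oval-leafed pondweed sown in alluvial soil under 4 cm flooding, greenhouse 25 to 30° C. At 1-2 leaf stage, water-diluted emulsion applied to the water surface at stated g/ha dosages; effects scored 3 weeks later.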

barnyard grass [4] = assay: Test Example 1: weedkilling efficacy, preemergent weed treatment in the submerged state; A: barnyard grass
Procedure, shortened: as §1

transplanted rice = assay: Test Example 1: preemergent weed treatment in the submerged state, effect on crop; a: transplanted rice
Procedure, shortened: as §1

barnyard grass [5] = assay: Test Example 2: weedkilling efficacy, growth period weed treatment in the submerged state; A: barnyard grass
Procedure, shortened: as §2

oval-leafed pondweed [6] = assay: Test Example 2: weedkilling efficacy, growth period weed treatment in the submerged state; C: oval-leafed pondweed
Procedure, shortened: as §2

CC(C)(C(=O)Nc1cc(Cl)cc(Cl)n1)N1COCN(c2ccccc2Cl)C1=O [A-6-06]
C: oval-leafed pondweed, weed kill grade (oval-leafed pondweed [1]; treatment dosage 252 g/ha): 5 (weed kill ratio 90% or more, (practically complete withering))
B: bulrush, weed kill grade (bulrush [2]; treatment dosage 252 g/ha): 5 (weed kill ratio 90% or more, (practically complete withering))
B (bulrush) weedkilling efficacy grade (bulrush [3]; treatment dosage 252 g/ha): 5 (weed kill ratio 90% or more, (practically complete withering))
A: barnyard grass, weed kill grade (barnyard grass [4]; treatment dosage 252 g/ha): 5 (weed kill ratio 90% or more, (practically complete withering))
a: transplanted rice, effect on crop grade (transplanted rice; treatment dosage 252 g/ha): 2 (weed kill ratio 20% or more, less than 40%)
A (barnyard grass) weedkilling efficacy grade (barnyard grass [5]; treatment dosage 252 g/ha): 5 (weed kill ratio 90% or more, (practically complete withering))
C (oval-leafed pondweed) weedkilling efficacy grade (oval-leafed pondweed [6]; treatment dosage 252 g/ha): 5 (weed kill ratio 90% or more, (practically complete withering))

CC(C)(C(=O)Nc1cncc(C(F)(F)F)c1)N1COCN(c2ccccc2)C1=O [A-3-10]
C: oval-leafed pondweed, weed kill grade (oval-leafed pondweed [1]; treatment dosage 252 g/ha): 5 (weed kill ratio 90% or more, (practically complete withering))
B: bulrush, weed kill grade (bulrush [2]; treatment dosage 252 g/ha): 5 (weed kill ratio 90% or more, (practically complete withering))
B (bulrush) weedkilling efficacy grade (bulrush [3]; treatment dosage 252 g/ha): 5 (weed kill ratio 90% or more, (practically complete withering))
A: barnyard grass, weed kill grade (barnyard grass [4]; treatment dosage 252 g/ha): 5 (weed kill ratio 90% or more, (practically complete withering))
a: transplanted rice, effect on crop grade (transplanted rice; treatment dosage 252 g/ha): 1 (weed kill ratio 5% or more, less than 20%)
A (barnyard grass) weedkilling efficacy grade (barnyard grass [5]; treatment dosage 252 g/ha): 3 (weed kill ratio 40% or more, less than 70%)
C (oval-leafed pondweed) weedkilling efficacy grade (oval-leafed pondweed [6]; treatment dosage 252 g/ha): 4 (weed kill ratio 70% or more, less than 90%)

O=C1N(c2ccccc2)COCN1C1(C(=O)Nc2cc(Cl)cc(Cl)n2)CC1 [A-7-04]
C: oval-leafed pondweed, weed kill grade (oval-leafed pondweed [1]; treatment dosage 1000 g/ha): 0 (weed kill ratio 5% or less (practically no effect))
B: bulrush, weed kill grade (bulrush [2]; treatment dosage 1000 g/ha): 5 (weed kill ratio 90% or more, (practically complete withering))
B (bulrush) weedkilling efficacy grade (bulrush [3]; treatment dosage 1000 g/ha): 1 (weed kill ratio 5% or more, less than 20%)
A: barnyard grass, weed kill grade (barnyard grass [4]; treatment dosage 1000 g/ha): 0 (weed kill ratio 5% or less (practically no effect))
a: transplanted rice, effect on crop grade (transplanted rice; treatment dosage 1000 g/ha): 0 (weed kill ratio 5% or less (practically no effect))
A (barnyard grass) weedkilling efficacy grade (barnyard grass [5]; treatment dosage 1000 g/ha): 0 (weed kill ratio 5% or less (practically no effect))
C (oval-leafed pondweed) weedkilling efficacy grade (oval-leafed pondweed [6]; treatment dosage 1000 g/ha): 0 (weed kill ratio 5% or less (practically no effect))

CC(C)(C(=O)Nc1cc(C2CC2)ccn1)N1COCN(c2ccccc2)C1=O [A-2-45]
C: oval-leafed pondweed, weed kill grade (oval-leafed pondweed [1]; treatment dosage 252 g/ha): 5 (weed kill ratio 90% or more, (practically complete withering))
B: bulrush, weed kill grade (bulrush [2]; treatment dosage 252 g/ha): 5 (weed kill ratio 90% or more, (practically complete withering))
B (bulrush) weedkilling efficacy grade (bulrush [3]; treatment dosage 252 g/ha): 4 (weed kill ratio 70% or more, less than 90%)
A: barnyard grass, weed kill grade (barnyard grass [4]; treatment dosage 252 g/ha): 5 (weed kill ratio 90% or more, (practically complete withering))
a: transplanted rice, effect on crop grade (transplanted rice; treatment dosage 252 g/ha): 0 (weed kill ratio 5% or less (practically no effect))
A (barnyard grass) weedkilling efficacy grade (barnyard grass [5]; treatment dosage 252 g/ha): 4 (weed kill ratio 70% or more, less than 90%)
C (oval-leafed pondweed) weedkilling efficacy grade (oval-leafed pondweed [6]; treatment dosage 252 g/ha): 3 (weed kill ratio 40% or more, less than 70%)

CC(C)(C(=O)Nc1cccc(C(F)F)n1)N1COCN(c2ccccc2)C1=O [A-2-41]
C: oval-leafed pondweed, weed kill grade (oval-leafed pondweed [1]; treatment dosage 315 g/ha): 5 (weed kill ratio 90% or more, (practically complete withering))
B: bulrush, weed kill grade (bulrush [2]; treatment dosage 315 g/ha): 5 (weed kill ratio 90% or more, (practically complete withering))
B (bulrush) weedkilling efficacy grade (bulrush [3]; treatment dosage 315 g/ha): 5 (weed kill ratio 90% or more, (practically complete withering))
A: barnyard grass, weed kill grade (barnyard grass [4]; treatment dosage 315 g/ha): 5 (weed kill ratio 90% or more, (practically complete withering))
a: transplanted rice, effect on crop grade (transplanted rice; treatment dosage 315 g/ha): 0 (weed kill ratio 5% or less (practically no effect))
A (barnyard grass) weedkilling efficacy grade (barnyard grass [5]; treatment dosage 315 g/ha): 5 (weed kill ratio 90% or more, (practically complete withering))
C (oval-leafed pondweed) weedkilling efficacy grade (oval-leafed pondweed [6]; treatment dosage 315 g/ha): 5 (weed kill ratio 90% or more, (practically complete withering))

CC1=C(c2cccnc2F)C(=O)N(C(C)(C)C(=O)Nc2cccc(Br)n2)CO1 [B-2-10]
C (oval-leafed pondweed) weedkilling efficacy grade (oval-leafed pondweed [1]; treatment dosage 320 g/ha): 5 (weed kill ratio 90% or more, (practically complete withering))
B (bulrush) weedkilling efficacy grade (bulrush [2]; treatment dosage 320 g/ha): 5 (weed kill ratio 90% or more, (practically complete withering))
B (bulrush) weedkilling efficacy grade (bulrush [3]; treatment dosage 320 g/ha): 5 (weed kill ratio 90% or more, (practically complete withering))
A (barnyard grass) weedkilling efficacy grade (barnyard grass [4]; treatment dosage 320 g/ha): 5 (weed kill ratio 90% or more, (practically complete withering))
a (transplanted rice) effect on crop grade (transplanted rice; treatment dosage 320 g/ha): 1 (weed kill ratio 5% or more, less than 20%)
A (barnyard grass) weedkilling efficacy grade (barnyard grass [5]; treatment dosage 320 g/ha): 5 (weed kill ratio 90% or more, (practically complete withering))
C (oval-leafed pondweed) weedkilling efficacy grade (oval-leafed pondweed [6]; treatment dosage 320 g/ha): 5 (weed kill ratio 90% or more, (practically complete withering))

CC(C)(C(=O)Nc1cncc(F)c1)N1COCN(c2ccccc2)C1=O [A-3-01]
C: oval-leafed pondweed, weed kill grade (oval-leafed pondweed [1]; treatment dosage 252 g/ha): 4 (weed kill ratio 70% or more, less than 90%)
B: bulrush, weed kill grade (bulrush [2]; treatment dosage 252 g/ha): 5 (weed kill ratio 90% or more, (practically complete withering))
B (bulrush) weedkilling efficacy grade (bulrush [3]; treatment dosage 252 g/ha): 5 (weed kill ratio 90% or more, (practically complete withering))
A: barnyard grass, weed kill grade (barnyard grass [4]; treatment dosage 252 g/ha): 5 (weed kill ratio 90% or more, (practically complete withering))
a: transplanted rice, effect on crop grade (transplanted rice; treatment dosage 252 g/ha): 1 (weed kill ratio 5% or more, less than 20%)
A (barnyard grass) weedkilling efficacy grade (barnyard grass [5]; treatment dosage 252 g/ha): 1 (weed kill ratio 5% or more, less than 20%)
C (oval-leafed pondweed) weedkilling efficacy grade (oval-leafed pondweed [6]; treatment dosage 252 g/ha): 2 (weed kill ratio 20% or more, less than 40%)

Cc1cc(C(F)(F)F)cc(NC(=O)C(C)(C)N2COCN(c3ccccc3)C2=O)n1 [A-2-58]
C: oval-leafed pondweed, weed kill grade (oval-leafed pondweed [1]; treatment dosage 320 g/ha): 5 (weed kill ratio 90% or more, (practically complete withering))
B: bulrush, weed kill grade (bulrush [2]; treatment dosage 320 g/ha): 5 (weed kill ratio 90% or more, (practically complete withering))
B (bulrush) weedkilling efficacy grade (bulrush [3]; treatment dosage 320 g/ha): 5 (weed kill ratio 90% or more, (practically complete withering))
A: barnyard grass, weed kill grade (barnyard grass [4]; treatment dosage 320 g/ha): 5 (weed kill ratio 90% or more, (practically complete withering))
a: transplanted rice, effect on crop grade (transplanted rice; treatment dosage 320 g/ha): 1 (weed kill ratio 5% or more, less than 20%)
A (barnyard grass) weedkilling efficacy grade (barnyard grass [5]; treatment dosage 320 g/ha): 5 (weed kill ratio 90% or more, (practically complete withering))
C (oval-leafed pondweed) weedkilling efficacy grade (oval-leafed pondweed [6]; treatment dosage 320 g/ha): 5 (weed kill ratio 90% or more, (practically complete withering))

CC(C)(C(=O)Nc1cccc(C(F)(F)F)n1)N1COCN(c2ccccc2)C1=O [A-2-44]
C: oval-leafed pondweed, weed kill grade (oval-leafed pondweed [1]; treatment dosage 252 g/ha): 4 (weed kill ratio 70% or more, less than 90%)
B: bulrush, weed kill grade (bulrush [2]; treatment dosage 252 g/ha): 5 (weed kill ratio 90% or more, (practically complete withering))
B (bulrush) weedkilling efficacy grade (bulrush [3]; treatment dosage 252 g/ha): 5 (weed kill ratio 90% or more, (practically complete withering))
A: barnyard grass, weed kill grade (barnyard grass [4]; treatment dosage 252 g/ha): 5 (weed kill ratio 90% or more, (practically complete withering))
a: transplanted rice, effect on crop grade (transplanted rice; treatment dosage 252 g/ha): 0 (weed kill ratio 5% or less (practically no effect))
A (barnyard grass) weedkilling efficacy grade (barnyard grass [5]; treatment dosage 252 g/ha): 3 (weed kill ratio 40% or more, less than 70%)
C (oval-leafed pondweed) weedkilling efficacy grade (oval-leafed pondweed [6]; treatment dosage 252 g/ha): 1 (weed kill ratio 5% or more, less than 20%)

Cc1cccc(N2COCN(C(C)(C)C(=O)Nc3cc(Cl)cc(Cl)n3)C2=O)c1 [A-6-08]
C: oval-leafed pondweed, weed kill grade (oval-leafed pondweed [1]; treatment dosage 320 g/ha): 5 (weed kill ratio 90% or more, (practically complete withering))
B: bulrush, weed kill grade (bulrush [2]; treatment dosage 320 g/ha): 5 (weed kill ratio 90% or more, (practically complete withering))
B (bulrush) weedkilling efficacy grade (bulrush [3]; treatment dosage 320 g/ha): 5 (weed kill ratio 90% or more, (practically complete withering))
A: barnyard grass, weed kill grade (barnyard grass [4]; treatment dosage 320 g/ha): 5 (weed kill ratio 90% or more, (practically complete withering))
a: transplanted rice, effect on crop grade (transplanted rice; treatment dosage 320 g/ha): 0 (weed kill ratio 5% or less (practically no effect))
A (barnyard grass) weedkilling efficacy grade (barnyard grass [5]; treatment dosage 320 g/ha): 5 (weed kill ratio 90% or more, (practically complete withering))
C (oval-leafed pondweed) weedkilling efficacy grade (oval-leafed pondweed [6]; treatment dosage 320 g/ha): 4 (weed kill ratio 70% or more, less than 90%)

CC(C)(C(=O)Nc1nc(Cl)cc(Cl)n1)N1COCN(c2ccccc2)C1=O [A-1-19]
C: oval-leafed pondweed, weed kill grade (oval-leafed pondweed [1]; treatment dosage 252 g/ha): 2 (weed kill ratio 20% or more, less than 40%)
B: bulrush, weed kill grade (bulrush [2]; treatment dosage 252 g/ha): 3 (weed kill ratio 40% or more, less than 70%)
B (bulrush) weedkilling efficacy grade (bulrush [3]; treatment dosage 252 g/ha): 2 (weed kill ratio 20% or more, less than 40%)
A: barnyard grass, weed kill grade (barnyard grass [4]; treatment dosage 252 g/ha): 2 (weed kill ratio 20% or more, less than 40%)
a: transplanted rice, effect on crop grade (transplanted rice; treatment dosage 252 g/ha): 0 (weed kill ratio 5% or less (practically no effect))
A (barnyard grass) weedkilling efficacy grade (barnyard grass [5]; treatment dosage 252 g/ha): 3 (weed kill ratio 40% or more, less than 70%)
C (oval-leafed pondweed) weedkilling efficacy grade (oval-leafed pondweed [6]; treatment dosage 252 g/ha): 2 (weed kill ratio 20% or more, less than 40%)

CC(C)(C(=O)Nc1ccnc(C(F)(F)F)c1)N1COCN(c2ccccc2)C1=O [A-4-06]
C: oval-leafed pondweed, weed kill grade (oval-leafed pondweed [1]; treatment dosage 252 g/ha): 5 (weed kill ratio 90% or more, (practically complete withering))
B: bulrush, weed kill grade (bulrush [2]; treatment dosage 252 g/ha): 5 (weed kill ratio 90% or more, (practically complete withering))
B (bulrush) weedkilling efficacy grade (bulrush [3]; treatment dosage 252 g/ha): 5 (weed kill ratio 90% or more, (practically complete withering))
A: barnyard grass, weed kill grade (barnyard grass [4]; treatment dosage 252 g/ha): 5 (weed kill ratio 90% or more, (practically complete withering))
a: transplanted rice, effect on crop grade (transplanted rice; treatment dosage 252 g/ha): 0 (weed kill ratio 5% or less (practically no effect))
A (barnyard grass) weedkilling efficacy grade (barnyard grass [5]; treatment dosage 252 g/ha): 4 (weed kill ratio 70% or more, less than 90%)
C (oval-leafed pondweed) weedkilling efficacy grade (oval-leafed pondweed [6]; treatment dosage 252 g/ha): 4 (weed kill ratio 70% or more, less than 90%)
